# Legend:
# A549 = test: Cytotoxicity against human A549 cells after 7 days by MTT assay; assay type: functional; details: A549, 168 h, read-out: ED50 (the source's name)
# HT-29 = test: Cytotoxicity against human HT-29 cells after 7 days by MTT assay; assay type: functional; details: HT-29, 168 h, read-out: ED50 (the source's name)
# MIA PaCa-2 = test: Cytotoxicity against human MIAPaCa2 cells after 7 days by MTT assay; assay type: functional
# MCF7 = test: Cytotoxicity against human MCF7 cells after 7 days by MTT assay; assay type: functional; details: MCF7, 168 h, read-out: ED50 (the source's name)
# PC-3 = test: Cytotoxicity against human PC3 cells after 7 days by MTT assay; assay type: functional
# A498 = test: Cytotoxicity against human A498 cells after 7 days by MTT assay; assay type: functional; details: A498, 168 h, read-out: ED50 (the source's name)
# Artemia = test: Toxicity in brine shrimp; assay type: organism-based; details: in vivo
Structure (SMILES),EC50 (A549) [µg/mL],EC50 (HT-29) [µg/mL],"EC50 (MIA PaCa-2; Homo sapiens, MIA PaCa-2, 168 h, read-out: ED50 (the source's name)) [µg/mL]",EC50 (MCF7) [µg/mL],"EC50 (PC-3; Homo sapiens, PC-3, 168 h, read-out: ED50 (the source's name)) [µg/mL]",EC50 (A498) [µg/mL],Activity (Artemia) [×10⁻³ ug/ml],ED50 (MIA PaCa-2) [×10⁻⁴ ug/ml],ED50 (PC-3) [×10⁻⁴ ug/ml]
COc1cccc2c1C(=O)c1c(O)c3c(c(O)c1C2=O)C[C@@](O)(C(=O)CO)C[C@@H]3O[C@H]1C[C@H](N)[C@H](O)[C@H](C)O1 [DOXORUBICIN],0.00447,0.0162,0.00288,0.0897,0.0213,0.0011,–,–,–
CCCCCCCCCC[C@@H]1O[C@H]([C@@H]2CC[C@H]([C@H](O)CCCCCCCCCC[C@@H](O)CC3=C[C@H](C)OC3=O)O2)CC[C@H]1O [JIMENEZIN],0.0164,0.00425,–,> 0.1,–,0.0494,5.7,1.69,2.77
